The values that follow come from US9981071B2, “Drug delivery medical device” (Micell Technologies, Inc., priority 2008, dated 2018).

For data set [1] the following is noted: acid urine; cited from earlier work.
Data set [2] concerns bladder cancer recurrence. To be noted: 40 mg/20 cc vs 20 mg/20 cc, dehydration, bladder emptying, alkalinization with sodium bicarbonate; cited from earlier work.
Details of data set [3]: dose or concentration left out as unconfirmed. Particulars: estradiol release, as its 3-acetate ester; cited from earlier work.
The nature of data set [4]: Bulk drug in arterial tissue surrounding the implanted stent. The format is in vivo, Yucatan pig. The procedure: Another sample of the coated stent was prepared for in vivo evaluation in a porcine coronary artery model using the Yucatan pig. Subjects were initially given 650 mg acetylsalicylic acid and 300 mg Plavix. Maintenance doses of 81 mg acetylsalicylic acid and 75 mg Plavix were administered. The target ACT (activated clotting time) for the procedure was about 250 seconds. Stent oversizing in relation to the artery was about 10-20%. The preparation of the sirolimus-coated stent was the same as described in Example 1 and used for the in vitro deployment into tubing, except that the device was sterilized using ETO prior to implantation into the animal.
The bulk concentration of drug was measured in the arterial tissue surrounding the implanted stent at 1, 3, 7, 14, and 28 days after implant, and provided a quantitative measure of the high efficiency of transfer of drug into the therapeutic site using devices and methods of the invention. The amount of drug that was detected in the arterial tissue was as follows: 1 day after implant, ˜6 μg; 3 days after implant, ˜16 μg; 7 days after implant, ˜30 μg; 14 days after implant, ˜30 μg; 28 days after implant, ˜13 μg. Peak tissue concentration of sirolimus of ˜30 μg at 14 days after implant was representative of approximately ⅙ of the total drug that had been loaded on the stent. Note that some drug likely metabolized or diffused out of the arterial tissue into other areas of the body.

Regarding `CO[C@@]12[C@H](COC(N)=O)C3=C(C(=O)C(C)=C(N)C3=O)N1C[C@@H]1N[C@@H]12` [Mitomycin C], the stability in urine entry in data set [1] is “inactivated by acid urine”. For the same compound, the “recurrence with optimized schedule” value in data set [2] is listed as “nearly cut in half”.

For the compound `C[C@]12CC[C@@H]3c4ccc(O)cc4CC[C@H]3[C@@H]1CC[C@@H]2O` [estradiol], the “circulating plasma concentration maintained” value in data set [3] is given as 300 pmol/L.

Regarding `CO[C@H]1C[C@@H]2CC[C@@H](C)[C@@](O)(O2)C(=O)C(=O)N2CCCC[C@H]2C(=O)O[C@H]([C@H](C)C[C@@H]2CC[C@@H](O)[C@H](OC)C2)CC(=O)[C@H](C)/C=C(\C)[C@@H](O)[C@@H](OC)C(=O)[C@H](C)C[C@H](C)/C=C/C=C/C=C/1C` [sirolimus], the “amount of drug detected in the arterial tissue” value in data set [4] (1 day after implant) was ~6 µg; in data set [4] (3 days after implant), ~16 µg; in data set [4] (7 days after implant) it was ~30 µg; in data set [4] (14 days after implant), ~30 µg; in data set [4] (28 days after implant) it was ~13 µg. Also, in data set [4] (14 days after implant), the “peak tissue level as fraction of the total drug loaded on the stent” value was “approximately ⅙”.
